Consider six compounds from paper PMC5557489, “Computational and experimental analysis of short peptide motifs for enzyme inhibition” (PLoS ONE, 2017).

As a reminder, the IC50 is the concentration needed to halve the response being measured.

This experiment concerns the target T1, β-galactosidase (β-Gal) (Escherichia coli, UniProt P00722).
T1 construct: purchased Sigma (St. Louis, MO)
As to the kind of experiment: biochemical. The format is biochemical. Here is the method:
Solution-based enzyme assays were performed on SpectraMax M5 96 well plate readers (Molecular Device, Sunnyvale, CA) as described previously.[13] Briefly, peptides were first incubated with enzyme for 20 minutes, then the substrate solution was added into the wells to measure the enzyme activity, including at least three replicates per peptide. The β-gal catalyzed hydrolysis of RBG was fluorescently monitored at 590 nm (resorufin) with the excitation at 540 nm. The velocity of the reaction was determined by the initial velocity of the linear reaction. The IC50 of each inhibitor was determined by fitting the concentration vs. inhibition curve to the function ‘Fit LogIC50’ as defined in the program GraphPad Prism 7 using the fitting equation “Y = Bottom+(Top-Bottom)/(1+10^(X-LogIC50))”.
The enzyme inhibition was also quantitatively characterized using the inhibition percentage that was calculated using the following equation: Inhibition Percentage = (Activityuninhibited− Activityinhibited)/ Activityuninhibited× 100% […]
Fluorescein di-β-D-galactopyranoside (FDG), resorufin β-D-galactopyranoside (RBG) and Alexa Fluor 647 (Alexa 647) were purchased from Invitrogen (Eugene, OR). Phenylethyl β-D-thiogalactoside (PETG), β-galactosidase (β-Gal), phosphate buffered saline (PBS) and tris buffered saline (TBS) were obtained from Sigma (St. Louis, MO). A 4 mg/mL stock solution of β-Gal was prepared in 10 mM potassium phosphate buffer with 0.1 mM MgCl2 at pH 7.4. A 2 mg/mL stock solution of peptide was first prepared in pure water, and then diluted in phosphate buffer to the desired concentration. Custom peptides were purchased from Sigma.

Like-named read-outs stand apart in the source and are kept apart here. Ends that are not written are not given here.

T1 sequence (P00722 2-1024): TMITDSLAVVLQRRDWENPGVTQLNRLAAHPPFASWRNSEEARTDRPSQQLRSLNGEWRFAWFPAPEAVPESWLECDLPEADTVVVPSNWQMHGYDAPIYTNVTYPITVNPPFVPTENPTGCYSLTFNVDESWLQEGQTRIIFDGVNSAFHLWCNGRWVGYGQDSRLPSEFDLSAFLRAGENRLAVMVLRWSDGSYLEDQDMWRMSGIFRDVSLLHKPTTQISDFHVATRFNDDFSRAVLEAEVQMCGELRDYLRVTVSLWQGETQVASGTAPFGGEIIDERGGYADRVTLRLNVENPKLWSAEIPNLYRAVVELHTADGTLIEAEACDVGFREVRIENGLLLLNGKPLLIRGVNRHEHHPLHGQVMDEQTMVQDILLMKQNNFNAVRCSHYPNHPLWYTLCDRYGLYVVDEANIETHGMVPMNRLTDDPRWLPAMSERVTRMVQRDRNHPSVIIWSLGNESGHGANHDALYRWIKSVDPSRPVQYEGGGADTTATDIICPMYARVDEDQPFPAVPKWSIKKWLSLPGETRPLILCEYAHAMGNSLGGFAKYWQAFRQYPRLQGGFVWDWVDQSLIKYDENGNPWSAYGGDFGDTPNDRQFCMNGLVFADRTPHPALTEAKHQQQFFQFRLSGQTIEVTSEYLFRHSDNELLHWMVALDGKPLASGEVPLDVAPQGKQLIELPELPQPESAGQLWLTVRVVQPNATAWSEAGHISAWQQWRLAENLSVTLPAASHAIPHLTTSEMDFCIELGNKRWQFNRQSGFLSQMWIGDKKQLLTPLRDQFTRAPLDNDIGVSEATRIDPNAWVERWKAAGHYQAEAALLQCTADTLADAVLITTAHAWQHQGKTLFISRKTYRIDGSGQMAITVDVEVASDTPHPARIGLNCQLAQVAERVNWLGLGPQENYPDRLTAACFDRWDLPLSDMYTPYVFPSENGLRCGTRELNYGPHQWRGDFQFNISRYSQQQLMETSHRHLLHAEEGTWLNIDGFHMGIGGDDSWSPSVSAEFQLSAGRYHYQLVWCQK

In the case of `OC[C@H]1O[C@@H](SCCc2ccccc2)[C@H](O)[C@@H](O)[C@@H]1O` [PETG, phenylethyl β-D-thiogalactoside, reference compound], the IC50 (Fig 1, 100 μM RBG, β-Gal 150 μg/L, 25°C, three replicates, lead peptides previously selected from microarray [13], read-out: IC50 of peptide inhibition of β-Gal) was ~35 µM. With FKRYKRWGSC [nPEP-1], the concentration for half-maximal inhibition (IC50) is ~4 µM. Turning to FKRYRRWGSC [nPEP-1-45], the IC50 is ~2.5 µM. In the case of “KKQGYYYKLGSC [shorter C-terminus motif of PEP-2 from truncation analysis]”, for the setting “Fig 3B, normalized to the inhibition percentage value of PEP-2 at 50 μM, three replicates”, the “normalized inhibition of β-Gal, truncation scan of PEP-2” value was “inhibited β-Gal”. In the case of PASMFSYFKKQGYYYKLGSC [PEP-2], the IC50 was ~13 µM. Consider RVFKRYKRWLHVSRYYFGSC [PEP-1], for which the half-inhibitory concentration (IC50) is ~1.6 µM.
